Data from ChEMBL document CHEMBL1201861, “Genomics of Drug Sensitity in Cancer screening data, Wellcome Trust Sanger Institute”.

Tests used:
Experiment in all cases: cells
EW-16 = type: functional, cell-based, Homo sapiens;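 further: growth inhibition of human EW-16 cells, read out as cell viability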
Description: SANGER: Inhibition of human EW-16 cell growth in a cell viability assay.

KE-37 = type: functional, cell-based, Homo sapiens;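 further: growth inhibition of KE-37 cells, read out with a cell viability assay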
Description: SANGER: Inhibition of human KE-37 cell growth in a cell viability assay.

HCE-4 = type: functional, cell-based, Homo sapiens;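 further: cell viability assay measuring inhibition of growth in the human HCE-4 cell line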
Description: SANGER: Inhibition of human HCE-4 cell growth in a cell viability assay.

KG-1 = type: functional, cell-based, Homo sapiens;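 further: growth inhibition of KG-1 cells, read out by a cell viability assay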
Description: SANGER: Inhibition of human KG-1 cell growth in a cell viability assay.

KM-H2 = type: functional, cell-based, Homo sapiens;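 further: growth inhibition of KM-H2 cells, read out by a cell viability assay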
Description: SANGER: Inhibition of human KM-H2 cell growth in a cell viability assay.

HD-MY-Z = type: functional, cell-based, Homo sapiens;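 further: growth inhibition of HD-MY-Z cells, read out with a cell viability assay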
Description: SANGER: Inhibition of human HD-MY-Z cell growth in a cell viability assay.

Mo = type: functional, cell-based, Homo sapiens
Description: SANGER: Inhibition of human Mo-T cell growth in a cell viability assay.

SW 954 = type: functional, cell-based, Homo sapiens;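 further: growth inhibition of SW954 human cancer cells, read out as cell viability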
Description: SANGER: Inhibition of human SW954 cell growth in a cell viability assay.

A388 = type: functional, cell-based, Homo sapiens;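 further: growth inhibition of human A388 cells, read out with a cell viability assay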
Description: SANGER: Inhibition of human A388 cell growth in a cell viability assay.

NCI-H209 = type: functional, cell-based, Homo sapiens;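 further: growth inhibition of human NCI-H209 cells, measured by a cell viability assay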
Description: SANGER: Inhibition of human NCI-H209 cell growth in a cell viability assay.

LU-139 = type: functional, cell-based, Homo sapiens
Description: SANGER: Inhibition of human LU-139 cell growth in a cell viability assay.

MEG-01 = type: functional, cell-based, Homo sapiens;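 further: growth inhibition of MEG-01 cells, read out by a cell viability assay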
Description: SANGER: Inhibition of human MEG-01 cell growth in a cell viability assay.

OS-RC-2 = type: functional, cell-based, Homo sapiens;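 further: growth inhibition of human OS-RC-2 cells, measured by a cell viability assay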
Description: SANGER: Inhibition of human OS-RC-2 cell growth in a cell viability assay.

no-10 = type: functional, cell-based, Homo sapiens;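 further: growth inhibition of no-10 cells, read out with a cell viability assay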
Description: SANGER: Inhibition of human no-10 cell growth in a cell viability assay.

LB2241-RCC = type: functional, cell-based, Homo sapiens;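 further: cell viability assay measuring how strongly the cultured human renal carcinoma line is prevented from growing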
Description: SANGER: Inhibition of human LB2241-RCC cell growth in a cell viability assay.

LB373-MEL-D = type: functional, cell-based, Homo sapiens;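 further: growth inhibition of the cell line, read out in a cell viability assay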
Description: SANGER: Inhibition of human LB373-MEL-D cell growth in a cell viability assay.

EKVX = type: functional, cell-based, Homo sapiens;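 further: growth inhibition of human EKVX cells, read out with a cell viability assay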
Description: SANGER: Inhibition of human EKVX cell growth in a cell viability assay.

RCC10RGB = type: functional, cell-based, Homo sapiens;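 further: growth inhibition of human RCC10RGB cells, read out by a cell viability assay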
Description: SANGER: Inhibition of human RCC10RGB cell growth in a cell viability assay.

NTERA-2-cl-D1 = type: functional, cell-based, Homo sapiens;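 further: inhibition of cell growth, measured with a cell viability assay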
Description: SANGER: Inhibition of human NTERA-S-cl-D1 cell growth in a cell viability assay.

SF-539 = type: functional, cell-based, Homo sapiens;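 further: Read-out is a cell viability assay, with IC50 reflecting inhibition of cell growth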
Description: SANGER: Inhibition of human SF539 cell growth in a cell viability assay.

HL-60 = type: functional, cell-based, Homo sapiens;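 further: growth inhibition of human HL-60 cells, read out with a cell viability assay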
Description: SANGER: Inhibition of human HL-60 cell growth in a cell viability assay.

MLMA = type: functional, cell-based, Homo sapiens;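 further: growth inhibition of MLMA cells (human), determined through a cell viability readout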
Description: SANGER: Inhibition of human MLMA cell growth in a cell viability assay.

NOS-1 = type: functional, cell-based, Homo sapiens;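 further: growth inhibition of the human NOS-1 cell line, read out with a cell viability assay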
Description: SANGER: Inhibition of human NOS-1 cell growth in a cell viability assay.

MMAC-SF = type: functional, cell-based, Homo sapiens;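 further: growth inhibition of human MMAC-SF cells, read out with a cell viability assay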
Description: SANGER: Inhibition of human MMAC-SF cell growth in a cell viability assay.

LU-134-A = type: functional, cell-based, Homo sapiens
Description: SANGER: Inhibition of human LU-134-A cell growth in a cell viability assay.

RKO = type: functional, cell-based, Homo sapiens;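 further: growth inhibition of human RKO cells, read out with a cell viability assay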
Description: SANGER: Inhibition of human RKO cell growth in a cell viability assay.

TK-10 = type: functional, cell-based, Homo sapiens;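 further: growth inhibition of TK-10 cells, read out in a cell viability assay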
Description: SANGER: Inhibition of human TK10 cell growth in a cell viability assay.

GI-1 = type: functional, cell-based, Homo sapiens;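 further: growth inhibition of human GI-1 cells, measured with a cell viability readout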
Description: SANGER: Inhibition of human GI-1 cell growth in a cell viability assay.

PSN1 = type: functional, cell-based, Homo sapiens;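 further: suppression of growth of human PSN1 cells, read out by a cell viability assay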
Description: SANGER: Inhibition of human PSN1 cell growth in a cell viability assay.

MC116 = type: functional, cell-based, Homo sapiens;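 further: growth inhibition of MC116 cells, read out with a cell viability assay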
Description: SANGER: Inhibition of human MC116 cell growth in a cell viability assay.

KS-1 = type: functional, cell-based, Homo sapiens;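 further: growth inhibition of KS-1 cells, read out with a cell viability assay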
Description: SANGER: Inhibition of human KS-1 cell growth in a cell viability assay.

NCI-H23 = type: functional, cell-based, Homo sapiens;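 further: cell viability assay measuring growth inhibition of NCI-H23 cells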
Description: SANGER: Inhibition of human NCI-H23 cell growth in a cell viability assay.

ES5 = type: functional, cell-based, Homo sapiens;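 further: growth inhibition of human ES5 cells, read out by a cell viability assay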
Description: SANGER: Inhibition of human ES5 cell growth in a cell viability assay.

NCI-H1770 = type: functional, cell-based, Homo sapiens;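 further: growth inhibition of NCI-H1770 cells determined with a viability readout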
Description: SANGER: Inhibition of human NCI-H1770 cell growth in a cell viability assay.

SHP77 = type: functional, cell-based, Homo sapiens, SHP-77;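 further: growth inhibition of human SHP-77 cells measured by a cell viability assay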
Description: SANGER: Inhibition of human SHP-77 cell growth in a cell viability assay.

DJM-1 = type: functional, cell-based, Homo sapiens;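 further: growth inhibition of human DJM-1 cells, read out by a cell viability assay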
Description: SANGER: Inhibition of human DJM-1 cell growth in a cell viability assay.

COR-L88 = type: functional, cell-based, Homo sapiens;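 further: growth inhibition of COR-L88 cells, read out with a cell viability assay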
Description: SANGER: Inhibition of human COR-L88 cell growth in a cell viability assay.

A4-Fuk = type: functional, cell-based, Homo sapiens;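 further: growth inhibition of A4-Fuk cells, read out by a cell viability assay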
Description: SANGER: Inhibition of human A4-Fuk cell growth in a cell viability assay.

NCI-H1838 = type: functional, cell-based, Homo sapiens;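 further: growth inhibition of NCI-H1838 cells, determined with a cell viability readout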
Description: SANGER: Inhibition of human NCI-H1838 cell growth in a cell viability assay.

KURAMOCHI = type: functional, cell-based, Homo sapiens;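 further: growth inhibition of KURAMOCHI cells, read out with a cell viability assay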
Description: SANGER: Inhibition of human KURAMOCHI cell growth in a cell viability assay.

ES8 = type: functional, cell-based, Homo sapiens;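 further: growth inhibition of human ES8 cells, read out with a cell viability assay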
Description: SANGER: Inhibition of human ES8 cell growth in a cell viability assay.

IST-MES1 = type: functional, cell-based, Homo sapiens;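 further: growth inhibition of IST-MES1 cells, measured with a cell viability assay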
Description: SANGER: Inhibition of human IST-MES1 cell growth in a cell viability assay.

CW-2 = type: functional, cell-based, Homo sapiens;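 further: growth inhibition of CW-2 cells, read out by a cell viability assay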
Description: SANGER: Inhibition of human CW-2 cell growth in a cell viability assay.

KINGS-1 = type: functional, cell-based, Homo sapiens;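 further: cell viability assay measuring suppression of KINGS-1 cell growth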
Description: SANGER: Inhibition of human KINGS-1 cell growth in a cell viability assay.

HCC1187 = type: functional, cell-based, Homo sapiens;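 further: growth inhibition of HCC1187 cells, read out with a cell viability assay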
Description: SANGER: Inhibition of human HCC1187 cell growth in a cell viability assay.

COLO-320-HSR = type: functional, cell-based, Homo sapiens;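 further: growth inhibition of COLO-320-HSR cells, determined with a cell viability assay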
Description: SANGER: Inhibition of human COLO-320-HSR cell growth in a cell viability assay.

K562 = type: functional, cell-based, Homo sapiens
Description: SANGER: Inhibition of human K-562 cell growth in a cell viability assay.

NCI-H1155 = type: functional, cell-based, Homo sapiens;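 further: cell growth inhibition measured by a viability assay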
Description: SANGER: Inhibition of human NCI-H1155 cell growth in a cell viability assay.

MOLT-4 = type: functional, cell-based, Homo sapiens;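 further: growth inhibition of MOLT-4 cells, determined with a cell viability readout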
Description: SANGER: Inhibition of human MOLT-4 cell growth in a cell viability assay.

With CISPLATIN the IC50 (EW-16; ew-16) was 24.6 µM, the IC50 (KE-37; ke-37) was 31.5 µM and the IC50 (HCE-4; hce-4) was 9.36 µM. It also gave an IC50 (KG-1; kg-1) of 3.63 µM, an IC50 (KM-H2; km-h2) of 450 µM and an IC50 (HD-MY-Z; hd-my-z) of 18 µM. It also gave an IC50 (Mo; mo) of 892 µM, an IC50 (SW 954; sw 954) of 11.1 µM and an IC50 (A388; a388) of 51.9 µM. For the same compound, the IC50 (NCI-H209; nci-h209) was 0.537 µM, the IC50 (LU-139; lu-139) was 95.6 µM and the IC50 (MEG-01; meg-01) was 21.7 µM. The IC50 (OS-RC-2; os-rc-2) was 3.87 µM, the IC50 (no-10) was 77.8 µM and the IC50 (LB2241-RCC; lb2241-rcc) was 11.3 µM. For the same compound, the IC50 (LB373-MEL-D; lb373-mel-d) was 11 µM, the IC50 (EKVX; ekvx) was 485 µM and the IC50 (RCC10RGB; rcc10rgb) was 917 µM. It also gave an IC50 (NTERA-2-cl-D1; ntera-2-cl-d1) of 0.848 µM, an IC50 (SF-539; sf-539) of 3.53 µM and an IC50 (HL-60; hl-60) of 8.69 µM. For the same compound, the IC50 (MLMA; mlma) was 19.2 µM, the IC50 (NOS-1; nos-1) was 147 µM and the IC50 (MMAC-SF; mmac-sf) was 531 µM. The IC50 (LU-134-A; lu-134-a) was 3.94 µM, the IC50 (RKO; rko) was 66.8 µM and the IC50 (TK-10; tk-10) was 31 µM. The IC50 (GI-1; gi-1) was 2.06 µM, the IC50 (PSN1; psn1) was 1.68 µM and the IC50 (MC116; mc116) was 86.9 µM. For the same compound, the IC50 (KS-1; ks-1) was 28.3 µM, the IC50 (NCI-H23; nci-h23) was 40 µM and the IC50 (ES5; es5) was 3.32 µM. For the same compound, the IC50 (NCI-H1770; nci-h1770) was 417 µM, the IC50 (SHP77; shp-77) was 602 µM and the IC50 (DJM-1; djm-1) was 6.36 µM. For the same compound, the IC50 (COR-L88; cor-l88) was 319 µM, the IC50 (A4-Fuk; a4-fuk) was 47.5 µM and the IC50 (NCI-H1838; nci-h1838) was 281 µM. It also gave an IC50 (KURAMOCHI; kuramochi) of 159 µM, an IC50 (ES8; es8) of 3.43 µM and an IC50 (IST-MES1; ist-mes1) of 19.7 µM. The IC50 (CW-2; cw-2) was 24.5 µM, the IC50 (KINGS-1; kings-1) was 42.8 µM and the IC50 (HCC1187; hcc1187) was 117 µM. It also gave an IC50 (COLO-320-HSR; colo-320-hsr) of 338 µM, an IC50 (K562; k562) of 509 µM and an IC50 (NCI-H1155; nci-h1155) of 22.7 µM. For the same compound, the IC50 (MOLT-4; molt-4) was 88.8 µM.
`CCC/C=C/C=C/C(=O)O[C@H]1/C(=C/C(=O)OC)C[C@H]2C[C@H]([C@@H](C)O)OC(=O)C[C@H](O)C[C@@H]3C[C@H](OC(C)=O)C(C)(C)[C@](O)(C[C@@H]4C/C(=C/C(=O)OC)C[C@H](/C=C/C(C)(C)[C@]1(O)O2)O4)O3` [BRYOSTATIN 1] gave an IC50 (EW-16; Homo sapiens, EW-16) greater than 0.008 µM, an IC50 (KE-37; Homo sapiens, KE-37) greater than 0.008 µM and an IC50 (HCE-4; Homo sapiens, HCE-4) greater than 0.008 µM. It also gave an IC50 (KG-1; Homo sapiens, KG-1) greater than 0.008 µM, an IC50 (KM-H2; Homo sapiens, KM-H2) greater than 0.008 µM and an IC50 (HD-MY-Z; Homo sapiens, HD-MY-Z) greater than 0.008 µM. The IC50 (Mo; Homo sapiens, Mo) was greater than 0.008 µM, the IC50 (SW 954; Homo sapiens, SW 954) was greater than 0.008 µM and the IC50 (A388; Homo sapiens, A388) was greater than 0.008 µM. It also gave an IC50 (NCI-H209; Homo sapiens, NCI-H209) greater than 0.008 µM, an IC50 (LU-139; Homo sapiens, LU-139) greater than 0.008 µM and an IC50 (MEG-01; Homo sapiens, MEG-01) greater than 0.008 µM. For the same compound, the IC50 (OS-RC-2; Homo sapiens, OS-RC-2) was greater than 0.008 µM, the IC50 (no-10; Homo sapiens) was greater than 0.008 µM and the IC50 (LB2241-RCC; Homo sapiens, LB2241-RCC) was greater than 0.008 µM. It also gave an IC50 (LB373-MEL-D; Homo sapiens, LB373-MEL-D) greater than 0.008 µM, an IC50 (EKVX; Homo sapiens, EKVX) greater than 0.008 µM and an IC50 (RCC10RGB; Homo sapiens, RCC10RGB) greater than 0.008 µM. For the same compound, the IC50 (NTERA-2-cl-D1; Homo sapiens, NTERA-2-cl-D1) was greater than 0.008 µM, the IC50 (SF-539; Homo sapiens, SF-539) was greater than 0.008 µM and the IC50 (HL-60; Homo sapiens, HL-60) was greater than 0.008 µM. It also gave an IC50 (MLMA; Homo sapiens, MLMA) greater than 0.008 µM, an IC50 (NOS-1; Homo sapiens, NOS-1) greater than 0.008 µM and an IC50 (MMAC-SF; Homo sapiens, MMAC-SF) greater than 0.008 µM. It also gave an IC50 (LU-134-A; Homo sapiens, LU-134-A) greater than 0.008 µM, an IC50 (RKO; Homo sapiens, RKO) greater than 0.008 µM and an IC50 (TK-10; Homo sapiens, TK-10) greater than 0.008 µM. It also gave an IC50 (GI-1; Homo sapiens, GI-1) greater than 0.008 µM, an IC50 (PSN1; Homo sapiens, PSN1) greater than 0.008 µM and an IC50 (MC116; Homo sapiens, MC116) greater than 0.008 µM. It also gave an IC50 (KS-1; Homo sapiens, KS-1) greater than 0.008 µM, an IC50 (NCI-H23; Homo sapiens, NCI-H23) greater than 0.008 µM and an IC50 (ES5; Homo sapiens, ES5) greater than 0.008 µM. It also gave an IC50 (NCI-H1770; Homo sapiens, NCI-H1770) greater than 0.008 µM, an IC50 (SHP77; Homo sapiens, SHP77) greater than 0.008 µM and an IC50 (DJM-1; Homo sapiens, DJM-1) greater than 0.008 µM. For the same compound, the IC50 (COR-L88; Homo sapiens, COR-L88) was greater than 0.008 µM, the IC50 (A4-Fuk; Homo sapiens, A4-Fuk) was greater than 0.008 µM and the IC50 (NCI-H1838; Homo sapiens, NCI-H1838) was greater than 0.008 µM. The IC50 (KURAMOCHI; Homo sapiens, KURAMOCHI) was greater than 0.008 µM, the IC50 (ES8; Homo sapiens, ES8) was greater than 0.008 µM and the IC50 (IST-MES1; Homo sapiens, IST-MES1) was greater than 0.008 µM. The IC50 (CW-2; Homo sapiens, CW-2) was greater than 0.008 µM, the IC50 (KINGS-1; Homo sapiens, KINGS-1) was greater than 0.008 µM and the IC50 (HCC1187; Homo sapiens, HCC1187) was greater than 0.008 µM. The IC50 (COLO-320-HSR; Homo sapiens, COLO-320-HSR) was greater than 0.008 µM, the IC50 (K562; Homo sapiens, K562) was greater than 0.008 µM and the IC50 (NCI-H1155; Homo sapiens, NCI-H1155) was greater than 0.008 µM. It also gave an IC50 (MOLT-4; Homo sapiens, MOLT-4) greater than 0.008 µM.
